# Data from patent publication US9126959B2, “PPAR-sparing thiazolidinedione salts for the treatment of metabolic diseases” (Metabolic Solutions Development Company, LLC, priority 2009, dated 2015).
# Counter-ions that a name gives are not always drawn.
# Assays:
# [1] = Moisture sorption analysis of metal salts of Compound B; format: physicochemical; settings: 25° C.
# Method: Metal salts of compounds of Formula I were characterized using XRPD, DSC, thermogravimetry, and moisture sorption analyses. Note that XRPD patterns described below, and provided in FIGS. 1 and 5 were obtained using a Bruker Model D8 X-Ray Diffractometer. Thermogravimetric analyses, DSC analyses, and moisture sorption analyses were performed using a TA Instruments Universal V4.4A instrument.
# FIG. 1 provides the XRPD pattern of a sample of a sodium salt of Compound B Referring to FIGS. 2-4, thermogravimetric, DSC, and moisture sorption analyses were performed on a sodium salt of Compound B. Thermogravimetric analysis was conducted using 7.5450 mg of the sodium salt and an instrument setting of 10° C./min. The DSC analysis was performed using a 2.00 mg sample of the sodium salt and an instrument setting of 10° C./min. The moisture sorption analysis was performed on 14.07 mg of sodium salt over a relative humidity range of 5% to 95% at 25° C. with 180 minute max. equilibration time and data sampling every 2 minutes.
# FIG. 5 provides the XRPD pattern of a sample of a potassium salt of Compound B Referring to FIGS. 6-8, thermogravimetric, DSC, and moisture sorption analyses were performed on a potassium salt of Compound B. Thermogravimetric analysis was conducted using 15.9290 mg of the potassium salt and an instrument setting of 10° C./min. […]
# [2] = AUC of compound related materials after oral dosing of Compound B free acid or its Na or K salt; format: in vivo; settings: cynomolgus monkeys, 250 mg free acid equivalents, formulated tablets; compared with free acid
# Method: Referring to FIG. 10, the area under the curve (AUC) of compound related materials was compared following dosing of 250 mg of Compound B as powder in capsules of free acid (PIC), formulated tablets of micronized free acid, or formulated tablets of the Na or K salt of Compound B given at the same free acid equivalents. (N=4 cynomolgus monkeys). The formulated, compressed tablet also contained in each case approximately 40.5% lactose, 16.8% microcrystalline cellulose, 1.9% Croscarmellose sodium, 0.5% colloidal silicon dioxide, and 0.9% magnesium stearate.
# [3] = Bioavailability of sodium salt of Compound A, oral capsule versus iv injection, crossover design; format: in vivo; settings: male cynomolgus monkeys, oral gavage, 90 mg free base equivalents in gelatin capsules; compared with free base
# Method: The monkeys fasted overnight and were dosed by oral gavage washed down with 10 ml tap water. Blood samples were taken at 0.25, 0.5, 1, 2, 3, 4, 6, 9, 12, 24, and 48 hours after a single dosage was administered and assayed for drug related materials with a LCMS assay using an internal standard. 90 mg of drug was put in 00 gelatin capsules containing 90 mg of free base equivalents. This was compared to an iv injection of 2 ml/kg and 45 mg of free base solution in 50% hydroxypropyl b-cyclodextran. The absolute availability versus an iv injection was determined for both parent compound and major metabolite.
# diabetic KKAy mouse = assay: Blood glucose lowering in the diabetic KKAy mouse; format: in vivo; settings: diabetic KKAy mice, gavage once daily, measured after 4 daily doses
# Method: In these experiments, free base or sodium salt was given to diabetic KKAy mice (N=6) and blood glucose was measured after 4 days of daily treatment at the doses indicated. KKAy mice, 8-12 weeks of age, were given the doses of the compounds according to the dosages on the X axis of FIG. 11. The compounds were given by gavage once daily at 10 mg/kg. On the fifth day (after 4 daily doses at the levels show) a blood sample was taken to measure plasma glucose.
SMILES,water uptake ([1]; relative humidity increased from ~5% to ~95% RH) [wt %],bioavailability (AUC of compound related materials) [2],moisture uptake ([1]; between ~6% and ~95% RH) [wt %],"absolute availability versus an iv injection, major metabolite [3]","absolute availability versus an iv injection, parent compound [3]",lowering blood glucose (plasma glucose) (diabetic KKAy mouse)
"COc1cccc(C(=O)COc2ccc(CC3SC(=O)[N-]C3=O)cc2)c1.[K+] (stereo not shown) [potassium salt of Compound B, Potassium 5-{4-[2-(3-methoxyphenyl)-2-oxoethoxy]benzyl}-2,4-dioxo-1,3-thiazolidin-3-ide]",~21.1,significantly higher bioavailability,–,–,–,–
"COc1cccc(C(=O)COc2ccc(CC3SC(=O)[N-]C3=O)cc2)c1.[Na+] (stereo not shown) [sodium salt of Compound B, Sodium 5-{4-[2-(3-methoxyphenyl)-2-oxoethoxy]benzyl}-2,4-dioxo-1,3-thiazolidin-3-ide]",–,significantly higher bioavailability,~10.0,–,–,–
"CCc1ccc(C(=O)COc2ccc(CC3SC(=O)NC3=O)cc2)nc1 (stereo not shown) [sodium salt of Compound A, 5-(4-(2-(5-ethylpyridin-2-yl)-2-oxoethoxy)benzyl)-1,3-thiazolidine-2,4-dione]",–,–,–,significantly higher bioavailability,significantly higher bioavailability,excellent dose response for lowering blood glucose
